Test results from patent US20240327432A1, “THIOPHENE-PHENOTHIAZINE COMPOUNDS AND SYNTHESIS METHOD THEREOF, AS WELL AS APPLICATION THEREOF IN PREPARATION OF PHOTOTHERAPY MEDICINES” (Guangzhou Medical University, priority 2023, published 2024).
pIC50: −log10 of the molar value.

What was measured:
4T1 subcutaneous tumors [1] = settings: comparison from prior knowledge; cited from earlier work
[2] = Absorption spectrum by UV-visible spectrophotometer; format: physicochemical; settings: measured in ethanol
Description: (§1) Detection of the thiophene-phenothiazine compounds prepared in Examples 1-5: the absorption spectrum of the thiophene-phenothiazine compound in an ethanol solution was measured by using a UV-visible spectrophotometer, and spectral properties of the thiophene-phenothiazine compound were analyzed according to Beer-Lambert law; and a fluorescence emission spectrum of the thiophene-phenothiazine compound in the ethanol solution was measured under excitation of light with a wavelength of 650 nm, and results are shown in Table 1 and FIGS. 2-3.
(§2) • a. Absorbance was measured in ethanol. • b. During fluorescence emission spectrum measurement, an excitation wavelength was 650 nm, and a solvent was methanol. • c. ϕF of MB was used as a reference [ϕF=0.04, methanol].

[3] = Fluorescence emission spectrum; format: physicochemical; settings: for λem (maximum fluorescence emission wavelength): excitation 650 nm, solvent methanol; for ϕF (fluorescence quantum yield): ϕF of MB as reference (0.04, methanol)
Description: as §1, with “and a fluorescence emission spectrum of the thiophene-phenothiazine compound in the ethanol solution was measured under excitation of light” left out
as §2

MCF-7 cells [4] = assay: Phototoxicity measurement (CCK-8), MCF-7; format: cell-based, human; settings: for pIC50: Homo sapiens, MCF7, light or radiation study, 1 h incubation, 630 nm LED, 3.2 J cm^−2, then 24 h, read-out: PDK IC50 (phototoxicity)
Description: (§3) (1) Cell culture: HUVEC cells (human umbilical vein endothelial cells), A549 cells (human lung cancer cells), MCF-7 cells (human breast cancer cells), HeLa cells (human cervical cancer cells) and 4T1 cells (mouse breast cancer cells) were cultured in a DMEM high-glucose medium containing 10% fetal bovine serum and 1% penicillin-streptomycin at 37° C. and under a condition of a 5% carbon dioxide content. The HUVEC cells, the A549 cells, the MCF-7 cells, the HeLa cells and the 4T1 cells, at a logarithmic growth phase, were taken and inoculated into a 96-well plate, respectively, with approximately 1×10^4 cells per well, and incubation was performed overnight at 37° C. and under a condition of 5% CO2.
(§4) (3) Phototoxicity measurement: the cells were incubated in the dark with the compound of the present invention of different concentrations for 1 hour, rinsing was performed with PBS, a fresh culture solution was added, and the cells were irradiated with 630 nm LED light (light dose is 3.2 J cm^−2). Then the cells were incubated in the dark environment for 24 hours, and cell viability was measured by the CCK-8 method.

A549 cells [5] = assay: Phototoxicity measurement (CCK-8), A549; format: cell-based, human; settings: for pIC50: Homo sapiens, light or radiation study, 1 h incubation, 630 nm LED, 3.2 J cm^−2, then 24 h, read-out: PDK IC50 (phototoxicity)
Description: as §3, §4

4T1 cells [6] = assay: Phototoxicity measurement (CCK-8), 4T1; format: cell-based, mouse; settings: for pIC50: 1 h incubation, 630 nm LED, 3.2 J cm^−2, then 24 h, read-out: PDK IC50 (phototoxicity)
Description: as §3, §4

HeLa cells [7] = assay: Phototoxicity measurement (CCK-8), HeLa; format: cell-based, human; settings: for pIC50: Homo sapiens, light or radiation study, 1 h incubation, 630 nm LED, 3.2 J cm^−2, then 24 h, read-out: PDK IC50 (phototoxicity)
Description: as §3, §4

MCF-7 cells [8] = assay: Dark toxicity measurement (CCK-8), MCF-7; format: cell-based; settings: Homo sapiens, MCF7, 24 h in dark, read-out: DK IC50 (dark toxicity)
Description: as §3
(§5) (2) Dark toxicity measurement: the cells were incubated in a dark environment with the compound of the present invention of different concentrations for 24 hours, and cell viability was measured by a CCK-8 method.

A549 cells [9] = assay: Dark toxicity measurement (CCK-8), A549; format: cell-based; settings: Homo sapiens, 24 h in dark, read-out: DK IC50 (dark toxicity)
Description: as §3, §5

4T1 cells [10] = assay: Dark toxicity measurement (CCK-8), 4T1; format: cell-based, mouse; settings: 24 h in dark, read-out: DK IC50 (dark toxicity)
Description: as §3, §5

HeLa cells [11] = assay: Dark toxicity measurement (CCK-8), HeLa; format: cell-based; settings: Homo sapiens, 24 h in dark, read-out: DK IC50 (dark toxicity)
Description: as §3, §5

HUVEC cells = assay: Dark toxicity measurement (CCK-8), HUVEC; format: cell-based; settings: Homo sapiens, 24 h in dark
Description: as §3, §5

[12] = Photostability under continuous LED irradiation; format: physicochemical; settings: 630 nm LED, 106 mW cm^−2, FIG. 4
Description: Good photostability is a prerequisite for ensuring continuous generation of ROS by the photosensitizers under light excitation, which can effectively prevent decomposition of the photosensitizers after illumination, avoiding a decrease in a ROS generation rate with increasing illumination time. An LED light source (630 nm, 106 mW cm^−2) was used to continuously irradiate the compound (5 μM), and a UV-visible spectrophotometer was used to measure the absorption spectrum of the compound at 200-800 nm. The photostability of the compound was evaluated by comparing changes in maximum absorption values at 600-800 nm after different irradiation times.
Result diagrams of other compounds are similar to that of the compound I-3.

[13] = Singlet oxygen generation, DPBF steady-state method; format: physicochemical; settings: 2 μM in EtOH, 630 nm LED, irradiation for 20 s
Description: The efficiency of producing singlet oxygen through photosensitization is an important index for evaluating the photosensitizers. In the example, a conventional steady-state method was used, 1,3-diphenylisobenzofuran (DPBF) was used as a scavenger, which irreversibly reacted with the singlet oxygen to cause attenuation of the DPBF. An attenuation rate of the DPBF reflects production efficiency of ^1O2. Concentrations of the DPBF in EtOH at multiple irradiation time periods were measured by using a UV/Vis spectrum method.

4T1 subcutaneous tumors [14] = assay: Distribution in 4T1 subcutaneous tumors of mice (imaging); format: in vivo, BALB/c mice; settings: 1.6 mg/kg via tail vein
Description: (§6) 7-week-old BALB/c female mice weighing 18 g±1 g (purchased from Zhejiang Vital River Laboratory Animal Technology Co., Ltd) were used to construct a subcutaneous breast cancer (4T1) tumor model. When tumor volumes of the BALB/c mice were approximately 100 mm^3, in vivo anti-tumor experiments began. When the tumor volumes of the BALB/c mice were approximately 200 mm^3, imaging experiments began.
A solution of 10 mg/L was prepared from the compound I-3 of the present invention by using 1×PBS. The BALB/c mice with the tumor volumes of approximately 200 mm^3 were taken, and the solution was injected into tumor bearing mice via tail veins at a dose of 1.6 mg/kg. Imaging photos were taken at different times using Odyssey CLX, with excitation light of 680 nm and detection light of 720 nm. […] Therefore, the thiophene-phenothiazine compound of the present invention can be completely metabolized within 24 hours, effectively solving a metabolic problem in existing PDT treatment mentioned above.

[15] = test system: subcutaneous breast cancer (4T1) tumor model; assay: In vivo PDT inhibition of breast cancer growth; parameters: species or system BALB/c mice; settings: 21 days
Source text: as §6
The BALB/c mice with the tumor volumes of approximately 100 mm^3 were taken, and the tumor bearing mice were divided into 4 groups, namely groups A, B, C and D, with 5 mice in each group. The mice in the group A and the group B were injected with 1×PBS 100 μL via tail veins. In addition, the mice in the group C and the group D were injected with compound I-3 via the tail veins at a dose of 1.6 mg/kg; and after 2 hours, the mice in the group B and the group D were irradiated with a light source (655 nm, 300 mW cm^2) for 10 minutes. Body weights and tumor volumes of the mice were measured on the 2nd day, 4th day, 8th day, 12th day, 16th day, and 21st day, respectively. On the 21st day, approximately 0.8 mL of mouse blood was collected using an eyeball blood sampling method, of which 0.4 mL of the mouse blood was placed in an EDTA-2K anticoagulant tube, and the remaining 0.4 mL of the mouse blood was centrifuged for serum collection.

[16] = Mus musculus, light or radiation study

Molecule | λmax (maximum absorption wavelength) [2] | λem (maximum fluorescence emission wavelength) [3] | ϕF (fluorescence quantum yield) [3] | PI (phototherapeutic index) (MCF-7 cells [4]) | pIC50 (MCF-7 cells [4]) | PI (phototherapeutic index) (A549 cells [5]) | pIC50 (A549 cells [5]) | PI (phototherapeutic index) (4T1 cells [6]) | pIC50 (4T1 cells [6]; [16]) | PI (phototherapeutic index) (HeLa cells [7]) | pIC50 (HeLa cells [7]) | pIC50 (MCF-7 cells [8]) | pIC50 (A549 cells [9]) | pIC50 (4T1 cells [10]; Mus musculus) | pIC50 (HeLa cells [11]) | pIC50 (HUVEC cells) | further results
porfimer sodium | – | – | – | – | – | – | – | – | – | – | – | – | – | – | – | – | metabolic time in the bodies (4T1 subcutaneous tumors [1]): about ten weeks
CCN(CC)c1ccc2c(c1)S(Cl)=c1cc(N)c3ccsc3c1=N2 (stereo not shown) [Compound I-1] | 663 nm | 692 nm | 0.4 | 9.03 | 6.41 | 16.47 | 6.34 | 17.69 | 6.06 | 10.26 | 6.44 | 5.45 | 5.12 | 4.81 | 5.43 | 4.60 | –
CN(C)c1ccc2nc3ccc(=[N+](C)C)cc-3sc2c1 [MB, Methylene blue, reference compound] | – | – | – | – | – | – | – | – | – | – | – | – | – | – | – | – | pIC50 (4T1 cells [6]): 4.85; pIC50 (4T1 cells [10]): 4.59

Further lines, with some results ahead:

λmax (maximum absorption wavelength) [2] | λem (maximum fluorescence emission wavelength) [3] | ϕF (fluorescence quantum yield) [3] | Molecule | PI (phototherapeutic index) (MCF-7 cells [4]) | pIC50 (MCF-7 cells [4]) | PI (phototherapeutic index) (A549 cells [5]) | pIC50 (A549 cells [5]) | PI (phototherapeutic index) (4T1 cells [6]) | pIC50 (4T1 cells [6]; [16]) | PI (phototherapeutic index) (HeLa cells [7]) | pIC50 (HeLa cells [7]) | pIC50 (MCF-7 cells [8]) | pIC50 (A549 cells [9]) | pIC50 (4T1 cells [10]; Mus musculus) | pIC50 (HeLa cells [11]) | pIC50 (HUVEC cells) | further results
671 nm | 698 nm | 0.5 | CCN(CC)c1ccc2c(c1)S(Cl)=c1cc(NC)c3ccsc3c1=N2 (stereo not shown) [Compound I-2] | 14.2 | 6.85 | 21.66 | 6.49 | 24.41 | 6.40 | 23.49 | 6.89 | 5.69 | 5.16 | 5.01 | 5.50 | 4.76 | –
674 nm | 700 nm | 0.6 | CCCCCCCNc1cc2c(c3sccc13)=Nc1ccc(N(CC)CC)cc1S=2Cl (stereo not shown) [Compound I-5] | 7.11 | 6.33 | 8.57 | 6.38 | 2.22 | 5.72 | 3.32 | 6.37 | 5.48 | 5.45 | 5.37 | 5.84 | 5.12 | –
673 nm | 700 nm | 0.6 | CCCNc1cc2c(c3sccc13)=Nc1ccc(N(CC)CC)cc1S=2Cl (stereo not shown) [Compound I-3] | 24.00 | 6.92 | 31.35 | 6.68 | 44.51 | 6.72 | 32.72 | 7.15 | 5.54 | 5.18 | 5.06 | 5.62 | 4.87 | change of maximum absorption value as irradiation time increases (photostability) [12]: does not show a significant change; photosensitive efficiency (1O2, DPBF attenuation) [13]: 80%; time within which metabolized in mice (4T1 subcutaneous tumors [14]): ≤ 24 h; time after which compound gradually accumulates in tumors (4T1 subcutaneous tumors [14]; 4T1 tumor bearing mice): 1 h; time of maximum accumulation in the tumors (4T1 subcutaneous tumors [14]; 4T1 tumor bearing mice): 2 h; imaging signal after 24 hours (4T1 subcutaneous tumors [14]; 24 hours): basically not detected; growth of tumor volumes ([15]; group C: 1.6 mg/kg i.v. alone, no irradiation): did not show tumor growth inhibition; growth of tumor volumes ([15]; group D: 1.6 mg/kg i.v. + light 655 nm, 10 minutes, after 2 hours): significantly inhibited
673 nm | 701 nm | 0.5 | CCCCCNc1cc2c(c3sccc13)=Nc1ccc(N(CC)CC)cc1S=2Cl (stereo not shown) [Compound I-4] | 9.05 | 6.41 | 11.09 | 6.51 | 4.16 | 5.88 | 4.32 | 6.36 | 5.46 | 5.46 | 5.26 | 5.72 | 4.98 | –
